Experimental data reported in US20240294491A1, “SALT OF HETEROCYCLIC COMPOUND WITH ANTI-MALARIA ACTIVITY, AND CRYSTALS THEREOF” (priority 2021, published 2024).
Where “and” joins values, the source holds several entries; their conditions need not be identical. Equal entries are not always repeated.

Assays:
[1] = tested on: 3D7 strain of Plasmodium falciparum (drug-sensitive strain); experiment: in vitro antimalarial activity, p-LDH colorimetric protozoan growth assay, 3D7 strain; type: cell-based; details: 72 hours culture, p-LDH colorimetry, read-out: 50% protozoan-growth-inhibitory concentration (IC50 value)
Description: (§1) With use of 3D7 and K1 strains, which are a drug-sensitive strain and drug-resistant strain of Plasmodium falciparum, respectively, provided by The Tropical Disease Research Center, Kitasato University, the in vitro antimalarial activity of the compound for these plasmodia was determined. In culture of the test protozoan parasites, maintenance and subculture were performed with a partially modified version of a method by Trager and Jensen (Trager, W and Jensen, J.: Human malaria parasites in continuous culture, Science, 193:673-677, (1976)), and the resultants were used. […]
(§2) The protozoan infection rate was maintained within the range of 0.25 to 10%. Drug sensitivity test was carried out with a modified version of a method by Desjardins et al. (Desjardins, R. E., Canfield, C. J., Haynes, D. E. and Chulay, J. D.: Quantitative assessment of antimalarial activity in vitro by a semiautomated microdilution technique. Antimicrob. Agents Chemother., 16:710-718 (1979)). […] Blue formazan, a product generated through the reaction, was detected by measuring absorbance at a measurement wavelength of 660 nm by using a microplate reader to determine the presence or absence of protozoan growth by colorimetry. […]

[2] = tested on: Pf3D7^0087N9 strain of Plasmodium falciparum; experiment: drug efficacy evaluation with a humanized mouse malaria model; type: in vivo; details: humanized NSG mice, oral once per day for 3 days, treatment initiated 72 hours after infection, infection rate by flow cytometry
Description: The following drug efficacy evaluation with a humanized mouse malaria model was carried out by The Art of Discovery S. L. (Vizcaya, Spain) with use of compound (I). In short, erythrocytes infected with Plasmodium falciparum were intravenously inoculated into mice with transplanted human erythrocytes, and drug treatment was initiated after the lapse of 72 hours. The therapeutic effect in terms of infection rates was evaluated by determining the proportion of infected erythrocytes in peripheral blood.
Used in the present test was a Pf3D7^0087N9 strain of Plasmodium falciparum, which was produced according to study described in Reference (1) shown below. Human erythrocytes were transplanted into female NSG (NOD-scid IL-2Rγnull) immunodeficient mice, and the proportion of human erythrocytes in all the erythrocytes in peripheral blood was maintained to be 40% or more throughout the test period. […] Specifically, 2 μL of peripheral blood collected from an infected mouse was stained with TER-119-Phycoeruthrine (mouse erythrocyte marker) and SYTO-16 (dye for nucleic acid staining), and analyzed by flow cytometry. […] 2008 May 21; 3(5):e2252. • (2) Jimenez-Diaz et al. Quantitative measurement of Plasmodium-infected erythrocytes in murine models of malaria by flow cytometry using bidimensional assessment of SYTO-16 fluorescence. […]

[3] = tested on: K1 strain of Plasmodium falciparum (drug-resistant strain); experiment: in vitro antimalarial activity, p-LDH colorimetric protozoan growth assay, K1 strain; type: cell-based; details: K1, 72 h, read-out: 50% protozoan-growth-inhibitory concentration (IC50 value)
Description: as §1, §2

C[C@@H](Oc1ccc(CNC(=O)c2cc(-n3cnc(C(F)(F)F)n3)c(N)nc2N)cc1)C(F)(F)F [compound (I), 2,6-diamino-5-[3-(trifluoromethyl)-1H-1,2,4-triazol-1-yl]-N-(4-{[(2R)-1,1,1-trifluoropropan-2-yl]oxy}benzyl)pyridine-3-carboxamide]
IC50 [1]: 0.026 µg/mL and 53 nM
ED90 (daily dose with which the infection rate on day 7 after the infection decreased by 90% from that in a nontreatment group) [2]: 3.2 mg/kg/day
IC50 [3]: 0.043 µg/mL and 89 nM
